Results as given in US20240116985A1, “STAPLED PEPTIDES AND METHODS THEREOF” (priority 2020, published 2024).
In brackets after ≈: the same amount, converted by molar mass. Read-outs that look alike come from different tables or passages of the source.

Tests used:
Solubility in PBS = assay type: physicochemical
How it was run: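 PBS sample ultracentrifuged; supernatant run on HPLC vs. 50 μM peptide in DMSO standard. Solubility = (PBS peak area / DMSO peak area) × 50 uM.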

[1] = molecular target: T1, full-length beta-Catenin (Uniprot ID P35222) (Homo sapiens, UniProt P35222); experiment: Fluorescence polarization IC50 (beta-catenin / 5FAM-TCF4 10-53 competition); assay type: binding
T1 construct: 10 nM full-length beta-Catenin (Uniprot ID P35222)
T1 sequence (P35222 1-781): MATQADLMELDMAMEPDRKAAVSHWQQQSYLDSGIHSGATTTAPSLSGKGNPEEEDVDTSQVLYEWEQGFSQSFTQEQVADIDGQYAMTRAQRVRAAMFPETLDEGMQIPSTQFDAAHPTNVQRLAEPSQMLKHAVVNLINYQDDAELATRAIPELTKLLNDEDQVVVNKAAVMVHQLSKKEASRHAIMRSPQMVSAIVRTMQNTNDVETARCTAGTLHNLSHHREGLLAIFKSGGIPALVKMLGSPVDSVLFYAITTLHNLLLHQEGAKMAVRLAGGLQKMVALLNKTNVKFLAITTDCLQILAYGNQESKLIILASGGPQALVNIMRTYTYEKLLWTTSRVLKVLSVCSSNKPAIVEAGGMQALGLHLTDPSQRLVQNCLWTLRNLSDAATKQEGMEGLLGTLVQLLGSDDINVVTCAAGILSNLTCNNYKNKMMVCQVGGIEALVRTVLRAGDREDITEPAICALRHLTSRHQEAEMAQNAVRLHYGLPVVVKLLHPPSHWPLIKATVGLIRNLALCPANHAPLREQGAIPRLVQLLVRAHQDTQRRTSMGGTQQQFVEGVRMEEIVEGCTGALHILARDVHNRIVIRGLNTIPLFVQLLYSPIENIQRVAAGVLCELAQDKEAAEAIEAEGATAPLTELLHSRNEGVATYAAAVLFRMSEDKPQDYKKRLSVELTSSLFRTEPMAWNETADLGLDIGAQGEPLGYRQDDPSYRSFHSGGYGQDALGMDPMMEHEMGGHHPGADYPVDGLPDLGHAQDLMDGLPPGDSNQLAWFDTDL

[2] = fluorescence polarization, read-out: beta-Catenin FP IC50

Row | Structure (SMILES) | Solubility (Solubility in PBS) | IC50 [1, 2] | IC50 ([1]; beta-Catenin FP IC50, fluorescence polarization) | IC50 ([1]; fluorescence polarization, beta-catenin, read-out: FP EC50) | Solubility (Solubility in PBS; Solubility (uM))
1 | CC(=O)N1CCC[C@]12CC=CCCCC1(CCCC=CCCCOC(=O)N3CC[C@@](C(=O)N[C@@H](Cc4cccc(C(F)(F)F)c4)C(=O)N[C@@H](Cc4csc5ccccc45)C(=O)N[C@@H](CO)C(N)=O)(C3)NC(=O)[C@H]([C@@H](C)O)NC(=O)[C@H](Cc3ccccc3)NC(=O)[C@H](C)NC(=O)[C@H](C)NC(=O)[C@H]([C@@H](C)O)NC(=O)[C@H](CC(=O)O)NC1=O)NC(=O)[C@H](CC(C)(C)C)NC(=O)[C@H](CC(=O)O)NC2=O (stereo partly drawn) [I-1271, Ac-PL3-Asp-Npg-B5-Asp-Thr-Ala-Ala-Phe-Thr-PyrS2-3F3MeF-BztA-Ser-NH2] | 10 µM (≈ 19.1 µg/mL) | 682 nM |  |  | 
2 | CC(=O)N1CCC[C@]12CC=CCCCC1(CCCC=CCCCOC(=O)N3CC[C@@](C(=O)N[C@@H](Cc4ccccc4)C(=O)N[C@@H](Cc4csc5ccccc45)C(=O)N[C@@H](CCC(N)=O)C(N)=O)(C3)NC(=O)[C@H](CC(C)C)NC(=O)[C@H](Cc3ccccc3)NC(=O)[C@H](C)NC(=O)[C@H](CCCCNC(C)C)NC(=O)[C@H](CCC(N)=O)NC(=O)[C@H](CC(=O)O)NC1=O)NC(=O)[C@H](C)NC(=O)[C@H](CC(N)=O)NC2=O (stereo partly drawn) [I-1385, Ac-PL3-Asn-Ala-B5-Asp-Gln-iPrLys-Ala-Phe-Leu-PyrS2-Phe-BztA-Gln-NH2] | 10 µM (≈ 19.7 µg/mL) | 1080 nM |  |  | 
3 | CC(=O)N1CCC[C@]12CC=CCCCC1(CCCC=CCCCOC(=O)N3CC[C@@](C(=O)N[C@@H](Cc4ccccc4Cl)C(=O)N[C@@H](Cc4csc5ccccc45)C(=O)N[C@@H](CO)C(N)=O)(C3)NC(=O)[C@H]([C@@H](C)O)NC(=O)[C@H](Cc3ccccc3)NC(=O)[C@H](CC(C)C)NC(=O)[C@H](CC(C)C)NC(=O)[C@H](CC(=O)O)NC(=O)[C@H](CC(=O)O)NC1=O)NC(=O)[C@H](Cc1ccccc1)NC(=O)[C@H](CC(=O)O)NC2=O (stereo partly drawn) [I-1158, Ac-PL3-Asp-Phe-B5-Asp-Asp-Leu-Leu-Phe-Thr-PyrS2-2C1F-BztA-Ser-NH2] | 29 µM (≈ 57.9 µg/mL) |  | 168 nM |  | 
4 | CC(=O)N1CCC[C@]12CC=CCCCC1(CCCC=CCCCOC(=O)N3CC[C@@](C(=O)N[C@@H](Cc4ccccc4)C(=O)N[C@@H](Cc4csc5ccccc45)C(=O)N[C@@H](CCC(N)=O)C(N)=O)(C3)NC(=O)[C@H](CC(C)C)NC(=O)[C@H](Cc3ccccc3)NC(=O)[C@H](C)NC(=O)[C@H](CCCCNC(C)C)NC(=O)[C@H](CCCCN)NC(=O)[C@H](CC(=O)O)NC1=O)NC(=O)[C@H](C)NC(=O)[C@H](CC(N)=O)NC2=O (stereo partly drawn) [I-1386, Ac-PL3-Asn-Ala-B5-Asp-Lys-iPrLys-Ala-Phe-Leu-PyrS2-Phe-BztA-Gln-NH2] | 10 µM (≈ 19.7 µg/mL) | 2250 nM |  |  | 
5 | CC(=O)N1CCC[C@]12CC=CCCCC1(CCCC=CCCCOC(=O)N3CC[C@@](C(=O)N[C@@H](Cc4ccccc4)C(=O)N[C@@H](Cc4csc5ccccc45)C(=O)N[C@@H](CCC(N)=O)C(N)=O)(C3)NC(=O)[C@H](CC(C)C)NC(=O)[C@H](Cc3ccccc3)NC(=O)[C@H](C)NC(=O)[C@H](CCCCNC(C)C)NC(=O)[C@H]([C@@H](C)O)NC(=O)[C@H](CC(=O)O)NC1=O)NC(=O)[C@H](C)NC(=O)[C@H](CC(N)=O)NC2=O (stereo partly drawn) [I-1382, Ac-PL3-Asn-Ala-B5-Asp-Thr-iPrLys-Ala-Phe-Leu-PyrS2-Phe-BztA-Gln-NH2] | 10 µM (≈ 19.4 µg/mL) | 2850 nM |  |  | 
6 | CC(=O)N1CCC[C@]12CC=CCCCC1(CCCC=CCCCOC(=O)N3CC[C@@](C(=O)N[C@@H](Cc4ccsc4)C(=O)N[C@@H](Cc4csc5ccccc45)C(=O)N[C@@H](CCC(N)=O)C(N)=O)(C3)NC(=O)[C@H](CC(C)C)NC(=O)[C@H](Cc3ccccc3)NC(=O)C(C)(C)NC(=O)C(C)(C)NC(=O)[C@H](CC(=O)O)NC(=O)[C@H](CC(=O)O)NC1=O)NC(=O)[C@H](CC(C)(C)C)NC(=O)[C@H](CC(=O)O)NC2=O (stereo partly drawn) [I-1179, Ac-PL3-Asp-Npg-B5-Asp-Asp-Aib-Aib-Phe-Leu-PyrS2-3Thi-BztA-Gln-NH2] | 44 µM (≈ 85.6 µg/mL) | 346 nM |  | 346 nM | 
7 | CC(=O)N1CCC[C@]12CC=CCCCC1(CCCC=CCCCOC(=O)N3CC[C@@](C(=O)N[C@@H](Cc4ccccc4)C(=O)N[C@@H](Cc4csc5ccccc45)C(=O)N[C@@H](CCCCN)C(N)=O)(C3)NC(=O)[C@H](CC(C)C)NC(=O)[C@H](Cc3ccccc3)NC(=O)[C@H](C)NC(=O)[C@H](CCCCNC(C)C)NC(=O)[C@H]([C@@H](C)O)NC(=O)[C@H](CC(=O)O)NC1=O)NC(=O)[C@H](C)NC(=O)[C@H](CC(N)=O)NC2=O (stereo partly drawn) [I-1383, Ac-PL3-Asn-Ala-B5-Asp-Thr-iPrLys-Ala-Phe-Leu-PyrS2-Phe-BztA-Lys-NH2] | 10 µM (≈ 19.4 µg/mL) | 1660 nM |  |  | 
8 | CC(=O)N1CCC[C@]12CC=CCCCC1(CCCC=CCCCCCC[C@@](C)(C(=O)N[C@@H](Cc3ccccc3Cl)C(=O)N[C@@H](Cc3csc4ccccc34)C(=O)N[C@H](CCC(N)=O)C(N)=O)NC(=O)[C@H](CC(C)C)NC(=O)[C@H](Cc3ccccc3)NC(=O)[C@H](C)NC(=O)[C@H](C)NC(=O)[C@H](CC(=O)O)NC(=O)[C@H](CC(=O)O)NC1=O)NC(=O)[C@H](CC(C)(C)C)NC(=O)[C@H](CC(=O)O)NC2=O (stereo partly drawn) [I-1198, Ac-PL3-Asp-Npg-B5-Asp-Asp-Ala-Ala-Phe-Leu-S8-2C1F-BztA-dGln-NH2] |  | 65 nM |  |  | 47 µM (≈ 89.4 µg/mL)
9 | CC(=O)N1CCC[C@]12CC=CCCCC1(CCCC=CCCCCCC[C@@](C)(C(=O)N[C@@H](Cc3ccsc3)C(=O)N[C@@H](Cc3csc4ccccc34)C(=O)N[C@@H](Cc3c[nH]nn3)C(N)=O)NC(=O)[C@H](CC(C)C)NC(=O)[C@H](Cc3ccccc3)NC(=O)[C@H](C)NC(=O)[C@H](C)NC(=O)[C@H](CC(=O)O)NC(=O)[C@H](CC(=O)O)NC1=O)NC(=O)[C@H](CC(C)(C)C)NC(=O)[C@H](CC(=O)O)NC2=O (stereo partly drawn) [I-1193, Ac-PL3-Asp-Npg-B5-Asp-Asp-Ala-Ala-Phe-Leu-S8-3Thi-BztA-4TriA-NH2] | 10 µM (≈ 18.8 µg/mL) | 78.5 nM |  |  | 
10 | CC(=O)N1CCC[C@]12CC=CCCCC1(CCCC=CCCCCCC[C@@](C)(C(=O)N[C@@H](Cc3ccsc3)C(=O)N[C@@H](Cc3csc4ccccc34)C(=O)N[C@H](CCC(N)=O)C(N)=O)NC(=O)[C@H](CC(C)C)NC(=O)[C@H](Cc3ccccc3)NC(=O)[C@H](C)NC(=O)[C@H](C)NC(=O)[C@H](CC(=O)O)NC(=O)[C@H](CC(=O)O)NC1=O)NC(=O)[C@H](CC(C)(C)C)NC(=O)[C@H](CC(=O)O)NC2=O (stereo partly drawn) [I-1199, Ac-PL3-Asp-Npg-B5-Asp-Asp-Ala-Ala-Phe-Leu-S8-3Thi-BztA-dGln-NH2] |  | 44.5 nM |  |  | 19 µM (≈ 35.6 µg/mL)
11 | CC(=O)N1CCC[C@]12CC=CCCCC1(CCCC=CCCCOC(=O)N3CC[C@@](C(=O)N[C@@H](Cc4ccc5ccccc5c4)C(=O)N[C@@H](Cc4csc5ccccc45)C(=O)N[C@@H](CO)C(N)=O)(C3)NC(=O)[C@H]([C@@H](C)O)NC(=O)[C@H](Cc3ccccc3)NC(=O)[C@H](C)NC(=O)[C@H](C)NC(=O)[C@H]([C@@H](C)O)NC(=O)[C@H](CC(=O)O)NC1=O)NC(=O)[C@H](CC(C)(C)C)NC(=O)[C@H](CC(=O)O)NC2=O (stereo partly drawn) [I-1270, Ac-PL3-Asp-Npg-B5-Asp-Thr-Ala-Ala-Phe-Thr-PyrS2-2NapA-BztA-Ser-NH2] | 10 µM (≈ 18.9 µg/mL) | 3700 nM |  |  | 
12 | CC(=O)N1CCC[C@]12CC=CCCCC1(CCCC=CCCCOC(=O)N3CC[C@@](C(=O)N[C@@H](Cc4ccccc4)C(=O)N[C@@H](Cc4csc5ccccc45)C(=O)N[C@@H](CCC(N)=O)C(N)=O)(C3)NC(=O)[C@H](CC(C)C)NC(=O)[C@H](Cc3ccccc3)NC(=O)[C@H](C)NC(=O)[C@H](CCCCNC(C)C)NC(=O)[C@H]([C@@H](C)O)NC(=O)[C@H](CC(N)=O)NC1=O)NC(=O)[C@H](C)NC(=O)[C@H](CC(=O)O)NC2=O (stereo partly drawn) [I-1376, Ac-PL3-Asp-Ala-B5-Asn-Thr-iPrLys-Ala-Phe-Leu-PyrS2-Phe-BztA-Gln-NH2] | 10 µM (≈ 19.4 µg/mL) | 4210 nM |  |  | 
13 | CCCCCCCC(=O)N1CCC[C@]12CC=CCCCC1(CCCC=CCCCOC(=O)N3CC[C@@](C(=O)N[C@@H](Cc4ccccc4Cl)C(=O)N[C@@H](Cc4csc5ccccc45)C(=O)N[C@@H](C(N)=O)[C@H](C)O)(C3)NC(=O)[C@H](CC(N)=O)NC(=O)[C@H](Cc3ccccc3)NC(=O)[C@H](C)NC(=O)[C@H](C)NC(=O)[C@H](CC(=O)O)NC(=O)[C@H](CC(=O)O)NC1=O)NC(=O)[C@H](CC(C)(C)C)NC(=O)[C@H](CC(=O)O)NC2=O (stereo partly drawn) [I-1252, Oct-PL3-Asp-Npg-B5-Asp-Asp-Ala-Ala-Phe-Asn-PyrS2-2C1F-BztA-dThr-NH2] |  | 546 nM |  |  | 44 µM (≈ 88.2 µg/mL)
14 | CC(=O)N1CCC[C@]12CC=CCCCC1(CCCC=CCCCOC(=O)N3CC[C@@](C(=O)N[C@@H](Cc4ccsc4)C(=O)N[C@@H](Cc4csc5ccccc45)C(=O)N[C@@H](CCC(N)=O)C(N)=O)(C3)NC(=O)[C@H](CC(N)=O)NC(=O)[C@H](Cc3ccccc3)NC(=O)[C@H](C)NC(=O)[C@H](C)NC(=O)[C@H](CC(=O)O)NC(=O)[C@H](CCO)NC1=O)NC(=O)[C@H](CC(C)(C)C)NC(=O)[C@H](CC(=O)O)NC2=O (stereo partly drawn) [I-1214, Ac-PL3-Asp-Npg-B5-Hse-Asp-Ala-Ala-Phe-Asn-PyrS2-3Thi-BztA-Gln-NH2] | 50 µM (≈ 95.2 µg/mL) | 116 nM |  |  | 
